Reference: publication PMC10531311, “Anti-Inflammatory Activities of 8-Benzylaminoxanthines Showing High Adenosine A2A and Dual A1/A2A Receptor Affinity” (International Journal of Molecular Sciences, 2023)
Marks after values point to notes of the source that are not given here.

Columns and labels:
human adenosine A2BR = molecular target: T1, human adenosine A2BR (Homo sapiens, UniProt P29275); assay: Radioligand binding at human adenosine A2B receptor vs. [3H]PSB-603; conditions: for inhibition at 1 µM: CHO cells, read-out: A2BR vs. [³H]PSB-603 % Inhibition ± SEM at 1 µM; for Ki: human recombinant receptor in CHO cells, read-out: A2BR vs. [³H]PSB-603 Ki ± SEM
T1 construct: expressed in transfected cells; host or cells: CHO cells
T1 sequence (P29275 1-332): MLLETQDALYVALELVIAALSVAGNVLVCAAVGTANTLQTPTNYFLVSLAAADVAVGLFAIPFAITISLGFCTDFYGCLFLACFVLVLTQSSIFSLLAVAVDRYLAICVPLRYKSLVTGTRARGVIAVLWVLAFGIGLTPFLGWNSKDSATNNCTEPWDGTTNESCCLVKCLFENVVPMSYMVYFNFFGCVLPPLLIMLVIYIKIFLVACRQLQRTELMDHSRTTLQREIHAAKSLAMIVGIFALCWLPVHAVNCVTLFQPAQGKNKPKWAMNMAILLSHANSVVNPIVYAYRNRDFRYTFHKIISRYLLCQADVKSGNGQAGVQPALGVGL
Experimental: Affinities for adenosine receptors were evaluated in radioligand binding assays as previously described. Human adenosine receptors were stably expressed in CHO cells. The following radioligands were used: [^3H]2-chloro-N^6-cyclopentyladenosine ([^3H]CCPA) for A1R; [^3H]3-(3-hydroxypropyl)-7-methyl-8-(m-methoxystyryl)-1-propargylxanthine ([^3H]MSX-2) for A2AR; [^3H]8-(4-(4-(4-chlorophenyl)piperazine-1-sulfonyl)phenyl)-1-propylxanthine ([^3H]PSB-603) for A2BR; [^3H]phenyl-8-ethyl-4-methyl-(8R)-4,5,7,8-tetrahydro-1H-imidazo [2,1-i]purine-5-one ([^3H]PSB-11) for A3R. Initially, compounds were tested at a concentration of 1 µM. […] At least three independent experiments were performed. Data were analyzed using GraphPad PRISM version 5.0 or higher (Graph Pad, San Diego, CA, USA). Ki were calculated using the Cheng–Prusoff equation.

CYP3A4 = molecular target: T2, CYP3A4 (Homo sapiens, UniProt P08684); assay: Drug-drug interactions, CYP3A4 P450-Glo; type: in vitro ADME; conditions: 10 µM
T2 construct: purchased Promega (Madison, WI, USA)
T2 sequence (P08684 whole entry): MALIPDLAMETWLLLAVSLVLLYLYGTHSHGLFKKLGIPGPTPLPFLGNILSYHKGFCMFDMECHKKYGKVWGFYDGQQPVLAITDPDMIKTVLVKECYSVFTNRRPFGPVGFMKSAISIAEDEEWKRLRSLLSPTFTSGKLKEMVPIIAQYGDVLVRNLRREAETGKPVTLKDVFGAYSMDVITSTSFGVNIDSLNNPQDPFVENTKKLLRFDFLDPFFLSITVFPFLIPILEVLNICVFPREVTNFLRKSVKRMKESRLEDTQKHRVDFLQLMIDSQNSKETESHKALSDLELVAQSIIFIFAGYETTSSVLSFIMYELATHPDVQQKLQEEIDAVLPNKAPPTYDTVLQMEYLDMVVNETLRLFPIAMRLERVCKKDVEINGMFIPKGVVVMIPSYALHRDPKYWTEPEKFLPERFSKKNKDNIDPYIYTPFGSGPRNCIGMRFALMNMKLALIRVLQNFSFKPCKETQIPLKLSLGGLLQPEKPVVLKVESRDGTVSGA
Experimental: To predict potential drug-drug interactions (DDI) effects on three of the most relevant cytochrome P450 (CYP), isoforms CYP3A4, CYP2D6 and CYP2C9 were investigated at a concentration of 10 µM. The results were compared with the effects of 1 µM of the selective inhibitors ketoconazole (CYP3A4), quinidine (CYP2D6) and sulfaphenazole (CYP2C9).
The influence of the tested compounds on recombinant human cytochromes was determined with the use of CYP3A4, CYP2D6 and CYP2C9 P450-Glo™ kits and protocols provided by Promega (Madison, WI, USA). Compounds were tested at a concentration of 10 μM. Reference inhibitors: Ketoconazole (CYP3A4), quinidine (CYP2D6) and sulfaphenazole (CYP2C9) were tested at 1 μM. The luminescent signals were measured using a microplate reader EnSpire PerkinElmer (Waltham, MA, USA).

formalin test in mice = assay: Formalin test; type: in vivo, albino Swiss mice
Experimental: Injection of formalin into the dorsal surface of the hind paw of a mouse produces a biphasic nocifensive behavioral response; i.e., licking, biting, flinching or lifting of the injected paw. The acute (neurogenic) nociceptive phase lasts for the first 5 min and is followed by a period of little activity for the next 10 min. The first phase of the test is directly associated with nociceptor stimulation and the development of neurogenic inflammation. The second (late) phase occurs between 15 and 30 min after formalin injection. The second phase depends on peripheral inflammation and the central sensitization of pain. Since this phase reflects the activation of inflammatory processes, the compounds active in this phase of the experiment also have an anti-inflammatory effect. The tested compounds 19, 22 and 24, were investigated in three doses: 10, 20 and 40 mg/kg bw. ASA (acetylsalicylic acid) was used as a reference compound and administered in doses of 50, 100 and 200 mg/kg. […] The strongest effect in this assay was produced by 24. […] In addition, this anti-nociceptive and anti-inflammatory effect was approximately 13.8 times greater than that observed for the reference compound (ASA). […] ASA also attenuated statistically significant pain responses in the late phases of the formalin test. […] The in vivo experiments were carried out on male albino Swiss mice weighing 18–26 g and male Wistar rats weighing 150–180 g. The animals were housed in constant temperature facilities exposed to a 12:12 light-dark cycle and maintained on a standard pellet diet and tap water given ad libitum. The control and experimental groups consisted of 6–8 animals each. The investigated compounds were intraperitoneally (ip) administered in the form of a suspension in 0.5% methylcellulose. Control animals received the equivalent volume of solvent. All procedures were conducted according to the guidelines of ICLAS (International Council on Laboratory Animals Science) and were approved by the Local Ethics Committee of the Jagiellonian University in Kraków. The mice were pretreated with the test compound or the vehicle and were allowed to acclimate in Plexiglas observation chambers (20 × 30 × 15 cm) for 30 min before the test. Then, 20 μL of a 5% formalin solution was intraplantarly injected into the right hind paw using a 26-gauge needle. Immediately after formalin injection, the animals were individually placed into glass beakers and were observed during the next 30 min. Time (in seconds) spent on licking or biting the injected paw in selected intervals, 0–5, 15–20, 20–25 and 25–30 min, was measured in each experimental group and was an indicator of nociceptive behavior [41]. The ED50 values and their confidence limits were estimated by the method of Litchfield and Wilcoxon.

[1] = test system: BV-2 cells treated with LPS; assay: Griess assay, NO production; conditions: BV-2, LPS 1 μg/mL 24 h; at the lowest concentrations (19: 100 nM; 22: 100 and 200 nM)
Experimental: To assess the ability of compounds to inhibit NO production, the Griess assay was applied. This is a colorimetric assay to measure the levels of nitrite (NO2^−), which is one of the primary and stable metabolites of NO. The anti-inflammatory activity of compounds was examined in BV-2 cells treated with LPS as previously described [19]. Briefly, BV-2 cells were first pre-treated with increasing concentrations of tested compounds for 1 h, followed by LPS (1 μg/mL) stimulation for 24 h. Together with the Griess assay, the 3-(4,5-dimethylthiazol-2-yl)-5-(3-carboxymethoxyphenyl)-2-(4-sulfophenyl)-2H-tetrazolium (MTS) assay was performed to ensure that the decrease in NO level was not an effect of toxicity.
Griess reagent (Sigma-Aldrich, Saint Louis, MO, USA, G4410) was freshly prepared by dissolving 1 g in ultrapure water and mixing by inversion for about 4 min under protection from light. […] The plate was incubated for 15 min at room temperature and the absorbance was read at 540 nm using the EnSpire microplate reader (PerkinElmer, Waltham, MA, USA). Data were analyzed by direct comparison based on the average absorbance of LPS treatment, compound treatment or co-treatment with LPS, performed by normalizing treated cells (compound alone or co-treatment with LPS) to LPS-treated cells set at 100%.

Row | inhibition at 1 µM (human adenosine A2BR) [%] | Ki (human adenosine A2BR) [nM] | CYP3A4 activity, % of the control activity (CYP3A4) | melting point [°C] | Structure (SMILES) | Early Phase Inhibition (%) (formalin test in mice; mice, 10 mg/kg ip) | Late Phase Inhibition (%) (formalin test in mice; mice, 10 mg/kg ip) | Licking of the Hind Paw Early Phase (0–5 min) Mean ± SEM (formalin test in mice; mice, 10 mg/kg ip) [s] | Licking of the Hind Paw Late Phase (15–30 min) Mean ± SEM (formalin test in mice; mice, 10 mg/kg ip) | Licking of the Hind Paw Early Phase (0–5 min) Mean ± SEM (formalin test in mice; mice, 20 mg/kg ip) [s] | Licking of the Hind Paw Late Phase (15–30 min) Mean ± SEM (formalin test in mice; mice, 20 mg/kg ip) | Early Phase Inhibition (%) (formalin test in mice; mice, 40 mg/kg ip) | Late Phase Inhibition (%) (formalin test in mice; mice, 40 mg/kg ip) | Licking of the Hind Paw Early Phase (0–5 min) Mean ± SEM (formalin test in mice; mice, 40 mg/kg ip) [s] | Licking of the Hind Paw Late Phase (15–30 min) Mean ± SEM (formalin test in mice; mice, 40 mg/kg ip) | anti-inflammatory activity in Griess assay (in words) [1] | Early Phase Inhibition (%) (formalin test in mice; mice, 20 mg/kg ip) | Late Phase Inhibition (%) (formalin test in mice; mice, 20 mg/kg ip) | ED50 (formalin test in mice; Mus musculus, mice, II (late) phase, method of Litchfield and Wilcoxon, read-out: calculated ED50 in the formalin test) [mg/kg] | effect, times greater than that of the reference compound (ASA) (formalin test in mice; formalin test, from ED50)
1 | 41 | > 1000 | around 75% | 276 to 278 | C#CCn1c(=O)c2c(nc(NCc3c(F)cccc3Cl)n2C)n(C)c1=O [compound 22, 8-((2-Chloro-6-fluorobenzyl)amino)-3,7-dimethyl-1-(prop-2-yn-1-yl)-3,7-dihydro-1H-purine-2,6-dione] | 0 | 22.8 | 41.6 ± 5.4 | 92.2 ± 6.5 s | 41.0 ± 8.6 | 78.2 ± 20.3 s | 5.8 | 48.0 | 39.2 ± 1.3 | 62.0 ± 5.2 ^b sec | moderate anti-inflammatory activity |  |  |  | 
2 | 14 | > 1000 | ~ 20% | 223 to 225 | C#CCn1c(=O)c2c(nc(NCc3ccccc3Cl)n2C)n(C)c1=O [compound 19, 8-((2-Chlorobenzyl)amino)-3,7-dimethyl-1-(prop-2-yn-1-yl)-3,7-dihydro-1H-purine-2,6-dione] |  | 26.0 | 41.8 ± 5.5 | 88.4 ± 5.6 s | 48.2 ± 10.0 | 76.8 ± 26.4 s | 0 | 47.2 | 42.6 ± 2.8 | 63.0 ± 6.6 ^b sec | moderate anti-inflammatory activity | 0 | 35.7 |  | 
3 | 25 | > 1000 | ~ 20% | 248 to 250 | C#CCn1c(=O)c2c(nc(NCc3cccc(Br)c3)n2C)n(C)c1=O [compound 24, 8-((3-Bromobenzyl)amino)-3,7-dimethyl-1-(prop-2-yn-1-yl)-3,7-dihydro-1H-purine-2,6-dione] | 0 | 48.7 | 43.2 ± 6.6 | 61.2 ± 6.4 ^b sec | 31.4 ± 5.0 | 20.4 ± 10.6 ^d sec | 26.0 | 89.7 | 30.8 ± 6.7 | 12.2 ± 3.3 ^d sec |  | 24.5 | 82.9 | 9.1 | approximately 13.8 times
